Experimental data published in PubChem BioAssay (NCI).
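Interpolation was linear, between the two tested concentrations surrounding the appropriate level; five concentrations were tested over 48 hours in 96-well plates. TGI is the concentration that stops growth completely.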

Tests used:
Test in all cases: NCI-60 cell line screen, 48 h
U251 CNS = tested on: U251 CNS
PC-3 prostate = tested on: PC-3 prostate
SK-MEL-5 melanoma = tested on: SK-MEL-5 melanoma
RPMI-8226 leukemia = tested on: RPMI-8226 leukemia
T-47D breast = tested on: T-47D breast
NCI-H460 lung = tested on: NCI-H460 lung
NCI-H522 lung = tested on: NCI-H522 lung
HCT-15 colon = tested on: HCT-15 colon
786-0 renal = tested on: 786-0 renal
OVCAR-5 ovarian = tested on: OVCAR-5 ovarian
HS 578T breast = tested on: HS 578T breast
EKVX NSCLC = tested on: EKVX NSCLC
A549 NSCLC = tested on: A549 NSCLC
NCI-H23 lung = tested on: NCI-H23 lung
COLO 205 colon = tested on: COLO 205 colon
CAKI-1 renal = tested on: CAKI-1 renal
NCI-H226 lung = tested on: NCI-H226 lung
HCC-2998 colon = tested on: HCC-2998 colon
UACC-62 melanoma = tested on: UACC-62 melanoma
LOX IMVI melanoma = tested on: LOX IMVI melanoma
MDA-N = tested on: MDA-N
OVCAR-3 ovarian = tested on: OVCAR-3 ovarian
MCF7 breast = tested on: MCF7 breast
RXF 393 renal = tested on: RXF 393 renal
SF-295 CNS = tested on: SF-295 CNS
K-562 leukemia = tested on: K-562 leukemia
SF-268 CNS = tested on: SF-268 CNS
OVCAR-4 ovarian = tested on: OVCAR-4 ovarian
KM12 colon = tested on: KM12 colon
HOP-92 NSCLC = tested on: HOP-92 NSCLC
M14 melanoma = tested on: M14 melanoma
SF-539 CNS = tested on: SF-539 CNS
OVCAR-8 ovarian = tested on: OVCAR-8 ovarian
SW-620 colon = tested on: SW-620 colon
SK-OV-3 ovarian = tested on: SK-OV-3 ovarian
MALME-3M melanoma = tested on: MALME-3M melanoma
UACC-257 melanoma = tested on: UACC-257 melanoma
SN12C renal = tested on: SN12C renal
UO-31 renal = tested on: UO-31 renal
TK-10 renal = tested on: TK-10 renal
ACHN renal = tested on: ACHN renal
NCI/ADR-RES ovarian = tested on: NCI/ADR-RES ovarian
SK-MEL-2 melanoma = tested on: SK-MEL-2 melanoma
HCT-116 colon = tested on: HCT-116 colon
A498 renal = tested on: A498 renal
SNB-75 CNS = tested on: SNB-75 CNS
BT-549 breast = tested on: BT-549 breast
SK-MEL-28 melanoma = tested on: SK-MEL-28 melanoma
SNB-19 CNS = tested on: SNB-19 CNS
HOP-62 NSCLC = tested on: HOP-62 NSCLC
IGROV1 ovarian = tested on: IGROV1 ovarian
MDA-MB-231 breast = tested on: MDA-MB-231 breast
MDA-MB-435 = tested on: MDA-MB-435
HT29 colon = tested on: HT29 colon
MOLT-4 leukemia = tested on: MOLT-4 leukemia
CCRF-CEM leukemia = tested on: CCRF-CEM leukemia
SR leukemia = tested on: SR leukemia
DU-145 prostate = tested on: DU-145 prostate
HL-60(TB) leukemia = tested on: HL-60(TB) leukemia

Measured: TGI

CCCCc1ccc(Nc2cc(=O)n(C)c(=O)[nH]2)cc1
72.9 µM: MCF7 breast
> 100 µM: U251 CNS | PC-3 prostate | SK-MEL-5 melanoma | RPMI-8226 leukemia | T-47D breast | NCI-H460 lung | NCI-H522 lung | HCT-15 colon | 786-0 renal | OVCAR-5 ovarian | HS 578T breast | EKVX NSCLC | A549 NSCLC | NCI-H23 lung | COLO 205 colon | CAKI-1 renal | NCI-H226 lung | HCC-2998 colon | UACC-62 melanoma | LOX IMVI melanoma | MDA-N | OVCAR-3 ovarian | RXF 393 renal | SF-295 CNS | K-562 leukemia | SF-268 CNS | OVCAR-4 ovarian | KM12 colon | HOP-92 NSCLC | M14 melanoma | SF-539 CNS | OVCAR-8 ovarian | SW-620 colon | SK-OV-3 ovarian | MALME-3M melanoma | UACC-257 melanoma | SN12C renal | UO-31 renal | TK-10 renal | ACHN renal | NCI/ADR-RES ovarian | SK-MEL-2 melanoma | HCT-116 colon | A498 renal | SNB-75 CNS | BT-549 breast | SK-MEL-28 melanoma | SNB-19 CNS | HOP-62 NSCLC | IGROV1 ovarian | MDA-MB-231 breast | MDA-MB-435 | HT29 colon

CC(C)(C)C1CCC2c3c([nH]c4ccccc34)C3C(=O)N(c4cccc([N+](=O)[O-])c4)C(=O)C3C2C1 (centres undefined)
45.7 µM: MDA-N
81.5 µM: MDA-MB-435
43.7 µM: 786-0 renal
99.4 µM: HOP-62 NSCLC
48.8 µM: NCI-H522 lung
53.1 µM: NCI-H226 lung
66.8 µM: EKVX NSCLC
25.3 µM: KM12 colon
59.7 µM: MALME-3M melanoma
77.6 µM: SF-268 CNS
49.8 µM: LOX IMVI melanoma
92.3 µM: MDA-MB-231 breast
> 100 µM: U251 CNS | PC-3 prostate | T-47D breast | NCI-H460 lung | MOLT-4 leukemia | HCT-15 colon | OVCAR-5 ovarian | A549 NSCLC | NCI-H23 lung | CCRF-CEM leukemia | UACC-62 melanoma | OVCAR-3 ovarian | MCF7 breast | RXF 393 renal | SF-295 CNS | K-562 leukemia | OVCAR-4 ovarian | HOP-92 NSCLC | M14 melanoma | SF-539 CNS | OVCAR-8 ovarian | SW-620 colon | SK-OV-3 ovarian | UO-31 renal | TK-10 renal | ACHN renal | A498 renal | SNB-75 CNS | SK-MEL-28 melanoma | SNB-19 CNS | IGROV1 ovarian | SR leukemia | DU-145 prostate | HT29 colon
40 µM: BT-549 breast
25.5 µM: SN12C renal
40.4 µM: HCT-116 colon
74.2 µM: NCI/ADR-RES ovarian
54.2 µM: CAKI-1 renal
63.4 µM: HCC-2998 colon
64.1 µM: SK-MEL-2 melanoma
61.6 µM: UACC-257 melanoma
73.6 µM: COLO 205 colon

CN1C2CCC1CC(CC(=O)NC(c1ccc(F)cc1)c1ccc(F)cc1)C2 (centres undefined)
80.6 µM: CCRF-CEM leukemia
> 100 µM: U251 CNS | PC-3 prostate | RPMI-8226 leukemia | T-47D breast | NCI-H460 lung | MOLT-4 leukemia | NCI-H522 lung | HCT-15 colon | 786-0 renal | OVCAR-5 ovarian | HS 578T breast | EKVX NSCLC | A549 NSCLC | NCI-H23 lung | CAKI-1 renal | NCI-H226 lung | LOX IMVI melanoma | MDA-N | OVCAR-3 ovarian | RXF 393 renal | SF-295 CNS | K-562 leukemia | SF-268 CNS | OVCAR-4 ovarian | KM12 colon | HOP-92 NSCLC | SF-539 CNS | OVCAR-8 ovarian | SW-620 colon | SK-OV-3 ovarian | SN12C renal | UO-31 renal | TK-10 renal | ACHN renal | NCI/ADR-RES ovarian | HCT-116 colon | A498 renal | SNB-75 CNS | BT-549 breast | SNB-19 CNS | HOP-62 NSCLC | IGROV1 ovarian | DU-145 prostate | MDA-MB-231 breast | MDA-MB-435 | HT29 colon
39.4 µM: UACC-257 melanoma
60.4 µM: MALME-3M melanoma
89.5 µM: SR leukemia
49 µM: SK-MEL-2 melanoma
33.7 µM: M14 melanoma
6.66 µM: HL-60(TB) leukemia
44.2 µM: COLO 205 colon
45.1 µM: SK-MEL-5 melanoma
55.1 µM: SK-MEL-28 melanoma

CN1CCN([C@H]2C[C@H]3[C@@H]4CC=C5C[C@@H](N6CCCC6)CC[C@]5(C)[C@H]4CC[C@]3(C)[C@H]2O)CC1
42.8 µM: RXF 393 renal
29.8 µM: M14 melanoma
35.8 µM: MALME-3M melanoma
39.9 µM: SK-MEL-5 melanoma
97.8 µM: HCC-2998 colon
34.2 µM: K-562 leukemia
48.3 µM: UACC-257 melanoma
47.9 µM: HL-60(TB) leukemia
16.4 µM: SR leukemia
55 µM: MDA-N
53.6 µM: RPMI-8226 leukemia
55.8 µM: SK-MEL-28 melanoma
39.1 µM: LOX IMVI melanoma
> 100 µM: U251 CNS | PC-3 prostate | T-47D breast | NCI-H460 lung | MOLT-4 leukemia | NCI-H522 lung | HCT-15 colon | 786-0 renal | OVCAR-5 ovarian | HS 578T breast | EKVX NSCLC | A549 NSCLC | NCI-H23 lung | COLO 205 colon | NCI-H226 lung | CCRF-CEM leukemia | UACC-62 melanoma | OVCAR-3 ovarian | MCF7 breast | SF-295 CNS | SF-268 CNS | OVCAR-4 ovarian | KM12 colon | HOP-92 NSCLC | OVCAR-8 ovarian | SW-620 colon | SK-OV-3 ovarian | SN12C renal | UO-31 renal | TK-10 renal | ACHN renal | NCI/ADR-RES ovarian | SK-MEL-2 melanoma | HCT-116 colon | A498 renal | SNB-75 CNS | BT-549 breast | SNB-19 CNS | HOP-62 NSCLC | IGROV1 ovarian | MDA-MB-231 breast | MDA-MB-435 | HT29 colon
30.6 µM: SF-539 CNS

COc1cc(/C=C2\C(=O)N(c3cc(Cl)ccc3Cl)C(c3ccccc3)S2(=O)=O)cc(OC)c1OC (centres undefined)
66.1 µM: MDA-N
51.7 µM: HL-60(TB) leukemia
96.2 µM: MDA-MB-435
> 100 µM: U251 CNS | PC-3 prostate | SK-MEL-5 melanoma | RPMI-8226 leukemia | T-47D breast | NCI-H460 lung | NCI-H522 lung | HCT-15 colon | 786-0 renal | OVCAR-5 ovarian | EKVX NSCLC | A549 NSCLC | NCI-H23 lung | COLO 205 colon | CAKI-1 renal | NCI-H226 lung | CCRF-CEM leukemia | HCC-2998 colon | UACC-62 melanoma | LOX IMVI melanoma | OVCAR-3 ovarian | MCF7 breast | RXF 393 renal | SF-295 CNS | K-562 leukemia | OVCAR-4 ovarian | KM12 colon | HOP-92 NSCLC | M14 melanoma | SF-539 CNS | OVCAR-8 ovarian | SW-620 colon | SK-OV-3 ovarian | MALME-3M melanoma | UACC-257 melanoma | SN12C renal | UO-31 renal | TK-10 renal | ACHN renal | NCI/ADR-RES ovarian | SK-MEL-2 melanoma | HCT-116 colon | A498 renal | SNB-75 CNS | BT-549 breast | SK-MEL-28 melanoma | SNB-19 CNS | HOP-62 NSCLC | IGROV1 ovarian | SR leukemia | DU-145 prostate | MDA-MB-231 breast | HT29 colon
99.4 µM: MOLT-4 leukemia
